SMILES strings stand for the structures. A value given as a limit tells only on which side of the number the result lay.

In this assay the target is T1, Human complement C1s enzyme (Homo sapiens, UniProt P09871).
T1 construct: purified from human serum, Complement Technology, Inc; purchased Complement Technology, Inc; host or cells: human serum
T1 sequence (P09871 438-688 limits assumed): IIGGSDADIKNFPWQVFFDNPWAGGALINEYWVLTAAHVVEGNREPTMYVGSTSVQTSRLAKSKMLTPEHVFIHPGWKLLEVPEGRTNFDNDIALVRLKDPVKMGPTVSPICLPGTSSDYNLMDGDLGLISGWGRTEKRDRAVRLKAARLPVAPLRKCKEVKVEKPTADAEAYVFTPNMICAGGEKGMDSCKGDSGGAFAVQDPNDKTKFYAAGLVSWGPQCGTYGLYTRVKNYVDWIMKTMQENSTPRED
T1 sequence (P09871 16-437 partner limits assumed): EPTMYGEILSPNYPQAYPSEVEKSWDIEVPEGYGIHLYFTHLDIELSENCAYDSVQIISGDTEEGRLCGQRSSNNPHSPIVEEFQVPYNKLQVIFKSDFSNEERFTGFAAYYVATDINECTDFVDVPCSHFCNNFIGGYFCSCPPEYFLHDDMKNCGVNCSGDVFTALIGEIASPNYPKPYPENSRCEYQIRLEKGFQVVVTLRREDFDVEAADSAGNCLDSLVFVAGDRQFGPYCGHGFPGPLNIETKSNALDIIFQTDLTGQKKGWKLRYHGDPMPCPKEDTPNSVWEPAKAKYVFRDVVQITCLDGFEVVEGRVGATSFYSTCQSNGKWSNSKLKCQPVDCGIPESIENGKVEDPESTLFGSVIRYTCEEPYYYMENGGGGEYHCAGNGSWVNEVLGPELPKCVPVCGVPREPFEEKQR
Briefly: Human C1s Enzyme Assay. It counts as biochemical. To be noted: human C1s 1.16 nM, 5 min preincubation, substrate Z-L-Lys-SBzl 100 μM, A405; read-out: C1s Protease Activity. Put shortly:
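C1s purified from human serum (1.16 nM final) was preincubated with compound for 5 min at room temperature in 50 mM Tris, 1 M NaCl, pH 7.5. Z-L-Lys-SBzl and DTNB were then added at 100 μM each, and A405 was followed for 30 min. IC50 came from nonlinear regression of reaction rates.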

As for `C[C@@H](NC(=O)[C@@H]1C[C@]2(C)C[C@@H]2N1C(=O)CNC(=O)c1ccc(C(=O)c2ccccc2)cc1)c1cc(C(=N)N)cs1` [Compound 180, (1S,5S)-2-((4-benzoylbenzoyl)glycyl)-N-((R)-1-(4-carbamimidoylthiophen-2-yl)ethyl)-5-methyl-2-azabicyclo[3.1.0]hexane-3-carboxamide], the IC50 was < 100 nM.
Turning to `[N-]=[N+]=NC[C@@]1(F)C[C@@H](C(=O)NCc2cc(C(=N)N)cs2)N(C(=O)CNC(=O)CCCOc2ccccc2)C1` [Compound 85, (2S,4R)-4-(azidomethyl)-N-((4-carbamimidoylthiophen-2-yl)methyl)-4-fluoro-1-((4-phenoxybutanoyl)glycyl)pyrrolidine-2-carboxamide], the IC50 is < 100 nM.
Under `Cc1cccc(O[C@@H]2C[C@@H](C(=O)N[C@H](C)c3cc(C(=N)N)cs3)N(C(=O)CNC(=O)CCCOc3ccccc3)C2)c1` [Compound 118, (2S,4R)-N-((R)-1-(4-carbamimidoylthiophen-2-yl)ethyl)-1-((4-phenoxybutanoyl)-glycyl)-4-(m-tolyloxy)pyrrolidine-2-carboxamide] stands < 100 nM.
Under `N=C(N)c1csc(CNC(=O)[C@@H]2C[C@]3(CO)C[C@@H]3N2C(=O)CNC(=O)CCCOc2ccccc2)c1` [Compound 84, (1S,3S,5R)-N-((4-carbamimidoylthiophen-2-yl)methyl)-5-(hydroxymethyl)-2-((4-phenoxybutanoyl)glycyl)-2-azabicyclo[3.1.0]hexane-3-carboxamide] stands 100 to 1000 nM; under `C[C@@H](NC(=O)[C@@H]1C[C@@H](c2ccccc2)CN1C(=O)CNC(=O)c1ccc(Oc2ccccc2)cc1)c1cc(C(=N)N)cs1` [Compound 246, (2S,4S)-N-((R)-1-(4-carbamimidoylthiophen-2-yl)ethyl)-1-((4-phenoxybenzoyl)glycyl)-4-phenylpyrrolidine-2-carboxamide], < 100 nM; under `C[C@@]12C[C@@H]1N(C(=O)CNC(=O)c1ccc(Oc3ccccc3)cc1)[C@H](C(=O)NCc1cc(/C(N)=N/S(N)(=O)=O)cs1)C2` [Compound 205, (1S,3S,5S)-5-methyl-2-((4-phenoxybenzoyl)glycyl)-N-((4-(N-sulfamoylcarbamimidoyl)thiophen-2-yl)methyl)-2-azabicyclo[3.1.0]hexane-3-carboxamide], > 1000 nM.
The same measure for `C[C@@H](NC(=O)[C@@H]1CC2(CC2)CN1C(=O)CNC(=O)CCCOc1ccccc1)c1cc(C(=N)N)cs1` [Compound 116, (6S)-N-[(1R)-1-(4-carbamimidoylthiophen-2-yl)ethyl]-5-[2-(4-phenoxybutanamido)acetyl]-5-azaspiro[2.4]heptane-6-carboxamide]: < 100 nM; for `CC(C)(C)c1ccc(OCCCC(=O)NCC(=O)N2[C@H]3C[C@@]3(C)C[C@H]2C(=O)NCc2cc(C(=N)N)cs2)cc1` [Compound 87, (1S,3S,5S)-2-((4-(4-(tert-butyl)phenoxy)butanoyl)glycyl)-N-((4-carbamimidoyl-thiophen-2-yl)methyl)-5-methyl-2-azabicyclo[3.1.0]hexane-3-carboxamide]: < 100 nM.
Regarding `C[C@@H](NC(=O)[C@@H]1C[C@@]23COCCCCCCCCCCCCCC(=O)N[C@@H](CCOc4ccccc4)C(=O)NCC(=O)N1[C@H]2C3)c1cc(C(=N)N)cs1` [Compound 255, (1R,19S,25S,28S)-N-((R)-1-(4-carbamimidoylthiophen-2-yl)ethyl)-17,20,23-trioxo-19-(2-phenoxyethyl)-3-oxa-18,21,24-triazatricyclo[22.2.2.0^125]octacosane-28-carboxamide], the IC50 was < 100 nM.
The same measure for `C[C@@H](NC(=O)[C@@H]1C[C@](F)(COCCCCCC(=O)O)CN1C(=O)CNC(=O)c1ccc(Oc2ccccc2)cc1)c1cc(C(=N)N)cs1` [Compound 199, 6-(((3R,5S)-5-(((R)-1-(4-carbamimidoylthiophen-2-yl)ethyl)carbamoyl)-3-fluoro-1-((4-phenoxybenzoyl)glycyl)pyrrolidin-3-yl)methoxy)hexanoic acid]: < 100 nM; for `C[C@@]12C[C@@H]1N(C(=O)CNC(=O)c1ccc(Oc3ccccc3)cc1)[C@H](C(=O)NCc1cc3ccnc(N)c3s1)C2` [Compound 256, (1S,3S,5S)-N-((7-aminothieno[2,3-c]pyridin-2-yl)methyl)-5-methyl-2-((4-phenoxybenzoyl)glycyl)-2-azabicyclo[3.1.0]hexane-3-carboxamide]: > 1000 nM.
For the compound `CO[C@@H]1C[C@@H](C(=O)NCc2cc(C(=N)N)cs2)N(C(=O)CNC(=O)CCCOc2ccccc2)C1` [Compound 27, (2S,4R)-N-((4-carbamimidoylthiophen-2-yl)methyl)-4-methoxy-1-((4-phenoxy-butanoyl)glycyl)pyrrolidine-2-carboxamide], the IC50 was < 100 nM.
Under `N=C(N)c1csc([C@H](NC(=O)[C@@H]2CC3(CN2C(=O)CNC(=O)CCCOc2ccccc2)OCCO3)c2ccccc2)c1` [Compound 175, (S)-N-((R)-(4-carbamimidoylthiophen-2-yl)(phenyl)methyl)-7-((4-phenoxybutanoyl)glycyl)-1,4-dioxa-7-azaspiro[4.4]nonane-8-carboxamide] stands > 1000 nM.
On to `N=C(N)c1csc(NC(=O)C[C@@H]2CCCN2C(=O)CNC(=O)c2ccc(Oc3ccccc3)cc2)c1` [Compound 40, N-{2-[(2S)-2-{[(4-carbamimidoylthiophen-2-yl)carbamoyl]methyl}pyrrolidin-1-yl]-2-oxoethyl}-4-phenoxybenzamide], for which the IC50 was > 1000 nM.
For the compound `C[C@@H](NC(=O)[C@@H]1C[C@@H](c2ccccc2)CN1C(=O)CNC(=O)CCCOc1ccccc1)c1cc(C(=N)N)cs1` [Compound 158, (2S,4S)-N-((R)-1-(4-carbamimidoylthiophen-2-yl)ethyl)-1-((4-phenoxybutanoyl)glycyl)-4-phenylpyrrolidine-2-carboxamide], the IC50 is < 100 nM.
The same measure for `CC(CCC(=O)NCC(=O)N1CC2(C[C@H]1C(=O)NCc1cc(C(=N)N)cs1)OCCO2)Oc1ccccc1` (stereo partly drawn) [Compound 97, (8S)-N-((4-carbamimidoylthiophen-2-yl)methyl)-7-((4-phenoxypentanoyl)glycyl)-1,4-dioxa-7-azaspiro[4.4]nonane-8-carboxamide]: < 100 nM; for `C[C@@H](NC(=O)[C@@H]1C[C@@]23COCCCCCCCCCCCCc4cc(ccc4Oc4ccc(F)cc4)C(=O)NCC(=O)N1[C@H]2C3)c1cc(C(=N)N)cs1` [Compound 257, (1R,26S,29S)-N-[(1R)-1-(4-carbamimidoylthiophen-2-yl)ethyl]-17-(4-fluorophenoxy)-21,24-dioxo-3-oxa-22,25-diazatetracyclo[23.2.2.1^16,^20.0^1,^26]triaconta-16,18,20(30)-triene-29-carboxamide]: > 1000 nM.
For the compound `N=C(N)c1csc(C(NC(=O)[C@@H]2C[C@@H](OC(F)F)CN2C(=O)CNC(=O)c2ccc(Oc3ccccc3)cc2)C(=O)O)c1` (stereo partly drawn) [Compound 190, 2-(4-carbamimidoylthiophen-2-yl)-2-((2S,4R)-4-(difluoromethoxy)-1-((4-phenoxybenzoyl)glycyl)pyrrolidine-2-carboxamido)acetic acid], the IC50 is < 100 nM.
For the compound `C[C@@H](NC(=O)[C@@H]1C[C@@H](OC(F)F)CN1C(=O)CNC(=O)CCCOc1ccc(F)cc1)c1cc(C(=N)N)cs1` [Compound 108, (2S,4R)-N-((R)-1-(4-carbamimidoylthiophen-2-yl)ethyl)-4-(difluoromethoxy)-1-((4-(4-fluorophenoxy)butanoyl)glycyl)pyrrolidine-2-carboxamide], the IC50 is < 100 nM.
Under `CC(CCOc1ccccc1)C(=O)NCC(=O)N1CC2(C[C@H]1C(=O)NCc1cc(C(=N)N)cs1)OCCO2` (stereo partly drawn) [Compound 88, (8S)-N-((4-carbamimidoylthiophen-2-yl)methyl)-7-((2-methyl-4-phenoxybutanoyl)glycyl)-1,4-dioxa-7-azaspiro[4.4]nonane-8-carboxamide] stands < 100 nM; under `C[C@@]12C[C@@H]1N(C(=O)CNC(=O)c1ccc(Oc3ccccc3)cc1)[C@H](C(=O)NC1CCc3c(C(=N)N)csc3C1)C2` (stereo partly drawn) [Compound 258, (1S,3S,5S)-N-(3-carbamimidoyl-4,5,6,7-tetrahydrobenzo[b]thiophen-6-yl)-5-methyl-2-((4-phenoxybenzoyl)glycyl)-2-azabicyclo[3.1.0]hexane-3-carboxamide], > 1000 nM.
Under `Cc1ccccc1[C@H]1C[C@@H](C(=O)NCc2cc(C(=N)N)cs2)N(C(=O)CNC(=O)CCCOc2ccccc2)C1` [Compound 150] stands < 100 nM; under `C[C@@]12C[C@@H]1N(C(=O)CNC(=O)c1ccc(Oc3ccccc3)cc1)[C@H](C(=O)NCc1cc(/C(N)=N/NS(=O)(=O)c3ccccc3)cs1)C2` [Compound 139, (1S,3S,5S)-N-((4-(imino(2-(phenylsulfonyl)hydrazineyl)methyl)thiophen-2-yl)methyl)-5-methyl-2-((4-phenoxybenzoyl)glycyl)-2-azabicyclo[3.1.0]hexane-3-carboxamide], > 1000 nM.

Values taken from US20250171423A1, “PHARMACEUTICAL COMPOUNDS FOR THE TREATMENT OF COMPLEMENT MEDIATED DISORDERS” (Achillion Pharmaceuticals, Inc., priority 2020, published 2025).
